In data set [1] the test system is Leptosphaeria nodorum (LEPTNO). As to the kind of experiment: In vitro fungitoxicity of hydrazones with and without copper towards Leptosphaeria nodorum (Example 26). Type of data set: cell-based. The following applies: 72 h at 25° C.; for inhibition of growth at 0.05 µg/mL: Parastagonospora nodorum, 72 h, copper-minus medium, read-out: LEPTNO % Inhn. Minus Copper Observed.

In a further data set the test system is Phytophthora infestans. Type of data set: in vivo, Phytophthora infestans on tomato. The following applies: applied 24 h before inoculation, assessed 7 days after inoculation.
Where [2] appears, read: compound 0.05 μg/mL, copper-plus medium (CuCl2.2H2O).
The mark [3] stands for this setting: hydrazone 50 ppm + 50 μM CuCl2.2H2O, tomato.
[4] abbreviates: test compound Concn. 0.05 μg/mL.
Setting [5] is: copper-plus medium (CuCl2 10 μM), test compound Concn. 0.05 μg/mL.
Setting [6] is: hydrazone 50 ppm with 50 μM CuCl2.2H2O, tomato late blight.

A word on the melting point: it is the temperature of the solid-liquid transition.

The structures appear in SMILES notation. Like-named read-outs stand apart in the source and are kept apart here.

Molecule `C/C(=N\NC(=O)c1ccccc1Cl)c1cccc([N+](=O)[O-])c1O` [Example 272] showed a melting point of 196 to 205 °C. Also, in data set [1] (compound 0.05 μg/mL), the inhibition of growth at 0.05 µg/mL was 2%. Besides, the “LEPTNO % Inhn. Plus Copper Observed” value in data set [1] (setting [2]) was 98.1%. Further, the “TLB % Control” value with Phytophthora infestans (setting [3]) turned out to be 37.0%.
The matching figures for `C/C(=N\NC(=O)c1cccc(Cl)c1)c1cccc([N+](=O)[O-])c1O` [Example 273]: 251 to 286 °C, 0.4%, 97.7% and 44.0%.
On the same counts, the results for `C/C(=N\NC(=O)c1ccc(Cl)cc1)c1cccc([N+](=O)[O-])c1O` [Example 274] are 241 to 251 °C, 0%, 96.3% and 89.0%.
`O=C(N/N=C/c1c(O)cc(C(F)(F)F)cc1C(F)(F)F)c1ccccc1` [Example 276]: the melting point is 144 to 193 °C. The inhibition of growth at 0.05 µg/mL in data set [1] (compound 0.05 μg/mL) stood at 5.5%. Also, the “LEPTNO % Inhn. Plus Copper Observed” value in data set [1] (setting [2]) amounted to 97.8%. Further, the “TLB % Control” value with Phytophthora infestans (setting [3]) was found to be 71.2%.
On the same counts, the results for `COc1ccc(/C(C)=N/NC(=O)c2ccccc2)c(O)c1` [Example 280] are 211 to 213 °C, 2.2%, 98.2% and 88.0%.
The molecule `COc1ccc(/C(C)=N/NC(=O)c2ccccc2C)c(O)c1` [Example 281] returned a melting point of 170 to 172 °C. Besides, the inhibition of growth at 0.05 µg/mL in data set [1] (compound 0.05 μg/mL) was found to be 1.4%. In addition, in data set [1] (setting [2]), the “LEPTNO % Inhn. Plus Copper Observed” value is listed as 98.4%. Also, the “TLB % Control” value in the data set with Phytophthora infestans (setting [3]) is 67.0%.
On the same counts, the results for `COc1ccc(/C(C)=N/NC(=O)c2cccc(C)c2)c(O)c1` [Example 282] are 184 to 185 °C, 0%, 94.7% and 52.0%.
As to `COc1ccc(/C(C)=N/NC(=O)c2ccc(C)cc2)c(O)c1` [Example 283], the melting point was 206 to 207 °C. For the same molecule, the inhibition of growth at 0.05 µg/mL in data set [1] (compound 0.05 μg/mL) is 0%. Also, in data set [1] (setting [2]), the “LEPTNO % Inhn. Plus Copper Observed” value stood at 95.9%. Moreover, in the data set on Phytophthora infestans (setting [3]), the “TLB % Control” value was 67.0%.
On the same counts, the results for `COc1ccc(/C(C)=N/NC(=O)c2ccccc2Cl)c(O)c1` [Example 284] are 174 to 175 °C, 0%, 97.1% and 74.0%.
`COc1ccc(/C(C)=N/NC(=O)c2cccc(Cl)c2)c(O)c1` [Example 285]: the melting point fell in the range of 212 to 214 °C. Moreover, the inhibition of growth at 0.05 µg/mL in data set [1] (compound 0.05 μg/mL) is 3.4%. In data set [1] (setting [2]), the “LEPTNO % Inhn. Plus Copper Observed” value amounted to 97.5%. Further, the “TLB % Control” value with Phytophthora infestans (setting [3]) came out at 51.0%.
On to `COc1ccc(/C(C)=N/NC(=O)c2ccc(Cl)cc2)c(O)c1` [Example 286], for which the melting point lay in the range of 227 to 229 °C. The inhibition of growth at 0.05 µg/mL in data set [1] (compound 0.05 μg/mL) worked out at 2.3%. Besides, the “LEPTNO % Inhn. Plus Copper Observed” value in data set [1] (setting [2]) is listed as 98.4%. Besides, the “TLB % Control” value in the data set on Phytophthora infestans (setting [3]) is recorded as 75.0%.
On the same counts, the results for `C/C(=N\NC(=O)c1ccccc1)c1cc(Br)ccc1O` [Example 287] are 204 to 208 °C, 0%, 98.3% and 65.0%.
On the same counts, the results for `C/C(=N\NC(=O)c1ccccc1C)c1cc(Br)ccc1O` [Example 288] are 201 to 203 °C, 1.8%, 98.2% and 26.0%.
The matching figures for `C/C(=N\NC(=O)c1cccc(C)c1)c1cc(Br)ccc1O` [Example 289]: 227 to 233 °C, 0%, 97.6% and 45.0%.
Molecule `C/C(=N\NC(=O)c1ccc(C)cc1)c1cc(Br)ccc1O` [Example 290] displayed a melting point of 245 to 248 °C. Also, the inhibition of growth at 0.05 µg/mL in data set [1] (compound 0.05 μg/mL) was 0.4%. In addition, the “LEPTNO % Inhn. Plus Copper Observed” value in data set [1] (setting [2]) worked out at 95.5%. For the same molecule, in the data set with Phytophthora infestans (setting [3]), the “TLB % Control” value came out at 21.0%.
The matching figures for `C/C(=N\NC(=O)c1ccccc1Cl)c1cc(Br)ccc1O` [Example 291]: 198 to 201 °C, 2.2%, 95.4% and 67.0%.
On the same counts, the results for `C/C(=N\NC(=O)c1cccc(Cl)c1)c1cc(Br)ccc1O` [Example 292] are 235 to 240 °C, 5%, 97.6% and 21.0%.
The matching figures for `O=C(N/N=C/c1ccc(C(F)(F)F)cc1O)c1ccccc1` [Example 294]: 215 to 217 °C, 1.7%, 94.2% and 72.9%.
Turning to `O=C(N/N=C/c1cc(C(F)(F)F)cc(C(F)(F)F)c1O)c1ccccc1` [Example 295], the melting point was in the range of 232 to 234 °C. Moreover, in data set [1] (compound 0.05 μg/mL), the inhibition of growth at 0.05 µg/mL is 5.8%. Besides, the “LEPTNO % Inhn. Plus Copper Observed” value in data set [1] (setting [2]) came to 98.0%. The “TLB % Control” value with Phytophthora infestans (setting [3]) amounted to 89.8%.
The molecule `O=C(N/N=C/c1cccc(C(F)(F)F)c1O)c1ccccc1` [Example 296] registered a melting point of 170 to 173 °C. Besides, the inhibition of growth at 0.05 µg/mL in data set [1] (setting [4]) came to 8.3%. In addition, the “LEPTNO % Inhn. Plus Copper Observed” value in data set [1] (setting [5]) worked out at 97.7%. Besides, in the data set on Phytophthora infestans (setting [6]), the “TLB % Control” value came out at 84.7%.
The matching figures for `O=C(N/N=C/c1c(O)cccc1C(F)(F)F)c1ccccc1` [Example 297]: 228 to 230 °C, 0%, 96.4% and 69.5%.
The matching figures for `CSc1cc(Br)c(O)c(/C=N/NC(=O)c2ccccc2)c1` [Example 298]: 207 to 209 °C, 0.7%, 95.0% and 74.6%.
The matching figures for `N#Cc1cc(Br)c(O)c(/C=N/NC(=O)c2ccccc2)c1` [Example 306]: 290 to 291 °C, 0%, 95.2% and 35.0%.
As to `N#Cc1cc(F)c(O)c(/C=N/NC(=O)c2ccccc2)c1` [Example 307], the melting point lay within 262 to 263 °C. Moreover, in data set [1] (setting [4]), the inhibition of growth at 0.05 µg/mL is 0%. In data set [1] (setting [5]), the “LEPTNO % Inhn. Plus Copper Observed” value was determined as 91.3%. The “TLB % Control” value with Phytophthora infestans (setting [6]) was 25.0%.
The matching figures for `Cc1ccc(C(=O)N/N=C/c2cc(Cl)cc(Cl)c2O)c(O)c1` [Example 308]: 262 to 269 °C, 37.2%, 97.7% and 96.0%.
The matching figures for `N#Cc1cccc(C(=O)N/N=C/c2cc(Cl)cc(Cl)c2O)c1` [Example 309]: 252 to 271 °C, 5.5%, 97.4% and 74.0%.

The values above are taken from patent US20120010075A1 (priority 2009, published 2012).
